Data from publication PMC5434028, “Structure-based prediction and identification of 4-epimerization activity of phosphate sugars in class II aldolases” (Scientific Reports, 2017).

Molecular target: T1, RhaD (L-rhamnulose-1-phosphate aldolase) (Escherichia coli, UniProt P32169)
T1 sequence (P32169 1-274): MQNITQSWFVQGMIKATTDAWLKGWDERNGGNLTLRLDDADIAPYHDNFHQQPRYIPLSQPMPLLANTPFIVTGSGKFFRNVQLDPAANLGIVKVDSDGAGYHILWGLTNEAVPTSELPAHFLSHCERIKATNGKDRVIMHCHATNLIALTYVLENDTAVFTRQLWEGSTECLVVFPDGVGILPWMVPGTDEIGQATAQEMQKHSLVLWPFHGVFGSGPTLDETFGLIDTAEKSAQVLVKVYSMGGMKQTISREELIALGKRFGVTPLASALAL
Test: aldol condensation, dephosphorylation, Bio-LC of sorbose and psicose
Format: biochemical
Settings: 50 mM Tris-HCl pH 7.0, 50 °C

| Structure (SMILES) | aldol condensation, dephosphorylation, Bio-LC of sorbose and psicose (co-substrate DHAP) | aldol condensation, dephosphorylation, Bio-LC of sorbose and psicose (co-substrate GA) |
| --- | --- | --- |
| O=C[C@H](O)CO [GA] | S1P and P1P were condensed from DHAP and GA using RhaD | – |
| O=C(CO)COP(=O)(O)O [dihydroxyacetone phosphate] | – | S1P and P1P were condensed from DHAP and GA using RhaD |
